Read-outs that look alike come from different tables or passages of the source.
Experiments:
E2F-1 and cyclin E1 = experiment: Immunoblot of E2F-1 and cyclin E1 in neuroblastoma and Ewing sarcoma cells; assay type: cell-based; details: in vitro, up to 48 h with topotecan (FIG. 24C)
[1] = test system: HSJD-RBT-2 retinoblastoma cells; experiment: Antiproliferative activity (MTS), HSJD-RBT-2; assay type: cell-based; details: Homo sapiens
Y79 xenografts = experiment: Ocular survival, Y79 intraocular xenografts (first study); assay type: in vivo, mouse; details: control 37 days; P vs control: combination 0.0005, topotecan 0.062, standard of care 0.674, VCN-01 1 (FIG. 20A)
Procedure: Antitumor activity in retinoblastoma. […] For ocular tumors, treatments were started at day 8 after inoculation (when tumors were appreciable by fundus examination).
In a first study, one dose of VCN-01 (3×10^8 vp in 2 μL vehicle, intravitreal, day 15), therapeutic schedules of topotecan or standard of care (SoC) retinoblastoma chemotherapy, or their combinations, was administered in the Y79 intraocular xenograft. For topotecan, mice received 0.6 mg/kg i.p. injections on days 8-12 and 29-33. […] 40 mg/kg, on days 8 and 29, and etoposide 6 mg/kg, on days 8-10 and 29-31.

E1A [2] = assay type: in vivo, mouse
retinoblastoma cells = assay type: cell-based; details: infection of retinoblastoma cells with VCN-01
[3] = non-tumor bearing pigs, cited from earlier work
[4] = test system: HSJD-RBT-7 retinoblastoma cells; experiment: cells; assay type: cell-based; details: Homo sapiens
[5] = test system: E1A, E1B, E2F-1, p53 and cPARP; experiment: Expression of viral genes and proteins by treatment sequence, Y79 cells; assay type: cell-based
Procedure: The expression of viral genes E1A and E1B was studied in 6-well culture plates containing 2×10^6 retinoblastoma cells. […] The experiments were controlled by adding culture medium instead of topotecan. […] Real time quantitative polymerase chain reactions (RT-qPCR) were carried out to analyze gene expression using SYBR technology (Thermo Fisher Scientific).
In all experiments, 6-well culture plates containing 2×10^6 cells were used. […] The experiments were controlled by adding culture medium instead of the second treatment. […] The analyses were expanded to other chemotherapeutic agents including hydroxyurea ([…]), etoposide (2 μM), irinotecan (10 μM) or SN-38 (1 μM).
Near-infrared labeled secondary antibodies (Odyssey CLx, LI-COR Inc. Bad Homburg, Germany) were used for detection.

[6] = cited from earlier work
[7] = test system: HSJD-ES-033 Ewing sarcoma; experiment: Antitumor activity in Ewing sarcoma PDX HSJD-ES-033; assay type: in vivo, mouse; details: single treatment (FIG. 24E,G)
Procedure: Patient-derived xenograft (PDX) of Ewing sarcoma (pediatric solid tumor) were implanted subcutaneously into athymic nude mice. Tumor model was HSJD-ES-033. Upon engraftment (tumor volumes ranging 100-500 mm^3), combination treatment in which topotecan was administered systemically (intraperitoneal) at a concentration of 0.6 mg/kg/day, on Days 1, 2, 3, 4 and 5, and a single dose of 3×10^9 vp/tumor VCN-01 was administered intratumorally on Day 1, was compared to either of the treatments alone.
Antitumor activity in extracranial pediatric solid tumors. 5-10 mm^3 fresh fragments of Ewing sarcoma or neuroblastoma PDX were implanted in both flanks of mice. Upon s.c. engraftment (tumor volume 150-200 mm^3), mice received topotecan (0.6 mg/kg, i.p., days 1-5), VCN-01 (3×10^9 vp in 20 µL vehicle, intratumoral, day 1), or the combination. In two additional groups, an alternative topoisomerase 1 inhibitor, irinotecan (10 mg/kg, i.p., on days 1-5) we used in place of topotecan. Upon completion of treatments, tumor volumes were followed until endpoint (1500 mm^3), or until day 80.

Y79 cells [8] = experiment: Cell cycle of retinoblastoma cells (propidium iodide cytometry); assay type: cell-based
Procedure: Then, the cells were collected and fixed in 70% ethanol for 2 h. The propidium iodide (PI)-based assay FxCycle™ PI/RNase (Thermo Fisher Scientific) was used as staining solution prior to quantification by flow cytometry (NovoCyte).

E1a [9] = assay type: cell-based
Y79 cells [10] = experiment: Viral production assay; assay type: cell-based; details: Y79 pre-infected with 500 MOI; topotecan 2 μM (FIG. 18F)
Procedure: Viral production assay. Y79 cells were infected with a concentration of 500 multiplicity of infection (MOI; i.e., transducing units of virus per cell), which was sufficient to achieve 80% to 100% infectivity. After 4 h, the cells were washed three times with PBS, fresh medium was added, and the cells were incubated with or without topotecan (2 μM). At time points 30, 48 and 72 h post-infection, the cell pellets were collected and exposed to three rounds of freeze-thaw lysis. Viral titers were determined in the pellets in triplicate, following an anti-hexon staining-based method in HEK293 cells (Cascallo et al., 2007).

[11] = read-out: IC50, Topotecan single agent
[12] = read-out: IC50, Topotecan with VCN-01 (10 MOI)
[13] = topotecan pretreatment before VCN-01 (FIG. 13E)

## CC[C@@]1(O)C(=O)OCc2c1cc1n(c2=O)Cc2cc3c(CN(C)C)c(O)ccc3nc2-1 [Topotecan, topotecan]
E2F-1 and cyclin E1
  expression of E2F-1 and cyclin E1: overexpression of E2F-1 and cyclin E1
[1]; [11]
  IC50: 7.38 nM
[1]; [12]
  IC50: 50.7 nM
Y79 xenografts
  median ocular survival: 58 days
E1A [2]; 5-day topotecan treatment, VCN-01-pretreated tumors, vs saline, […] or hydroxyurea (FIG. 18I)
  number of E1A-positive cells: highest number of E1A-positive cells
E1A [2]; 5-day topotecan treatment, VCN-01-pretreated tumors, vs saline, […] or hydroxyurea (FIG. 18J)
  level of E1A protein expression: highest level of E1A protein expression
E1A [2]; systemic drug after intratumoral VCN-01, 5 or 15 days (FIGS. 4A-C)
  VCN-01 activity (E1A) in tumors: enhances VCN-01 activity
Retinoblastoma cells
  cell sensitivity to drug after VCN-01 infection: decreased cell sensitivity
[3]
  systemic exposure, OAC versus IV: systemic exposure was comparable between the two routes
[3]; retina, after OAC than after IV
  topotecan concentration in retina, OAC versus IV: 146 times higher
[3]; vitreous, after OAC than after IV
  topotecan concentration in vitreous, OAC versus IV: 243 times higher
[4]; [11]
  IC50: 15.1 nM
[4]; [12]
  IC50: 118 nM
[5]; topotecan addition after the virus (FIG. 13E,F)
  E1A expression, VCN-01 first: up to two orders of magnitude
[5]; topotecan addition after the virus (FIG. 13G)
  E1B expression, VCN-01 first: up to two orders of magnitude
[5]; [13]
  E2F-1 level, topotecan first: accumulation of E2F-1
  p53 and cPARP expression, topotecan first: increased expression of proapoptotic proteins p53 and cPARP
[5]; topotecan pretreatment before VCN-01 (FIG. 13E,F)
  E1A expression (protein and gene), topotecan first: low expression of E1A (protein and gene)
[6]; all routes of administration
  ocular toxicity: minimal
[6]; given intravenously and intraarterially
  passage to the vitreous: favorable passage to the vitreous
[7]
  response of xenograft to single treatment: highly resistant
Y79 cells [8]; 24 h (FIG. 17A)
  percentage of cells in S-phase: increased the percentage of cells in S-phase
Y79 cells [8]; topotecan 2 μM (FIG. 17B,C)
  duration of S-phase effect: at least 48 h
E1a [9]; 4 retinoblastoma models, VCN-01 50 MOI, drug added at 24 h, lysis at 48 h (FIG. 1)
  expression of VCN-01 proteins (E1a): enhanced expression of VCN-01 proteins
E1a [9]; VCN-01 infected cells treated with drug (FIG. 13B, FIG. 15A)
  E1A expression in infected cells: highly overexpressed
Y79 cells [10]
  viral production: did not increase viral production

From patent US20260335388A1, “COMBINATION THERAPIES WITH ONCOLYTIC ADENOVIRUS AND TOPOISOMERASE I INHIBITORS OR PRODRUGS THEREOF” (priority 2022, published 2026)
